Test results reported in ChEMBL document CHEMBL1147193, “New 5-substituted thiazolo[3,2-b][1,2,4]triazol-6-ones: synthesis and anticancer evaluation” (2007).

Columns and labels:
Type in all cases: functional
[1] = system: OVCAR-5; test: Growth inhibition of human OVCAR5 cells after 48 hrs by SRB protein assay; conditions: OVCAR-5, 48 h
[2] = system: NCI-H460; test: Anticancer activity against human NCI-H460 cells assessed as growth of cells at 100 uM relative to untreated cells
[3] = system: IGROV-1; test: Growth inhibition of human IGROV1 cells after 48 hrs by SRB protein assay; conditions: IGROV-1, 48 h
[4] = system: T47D; test: Growth inhibition of human T47D cells after 48 hrs by SRB protein assay
[5] = system: M14; test: Growth inhibition of human M14 cells after 48 hrs by SRB protein assay; conditions: M14, 48 h
[6] = system: PC-3; test: Growth inhibition of human PC3 cells after 48 hrs by SRB protein assay; conditions: PC-3, 48 h
[7] = system: ACHN; test: Growth inhibition of human ACHN cells after 48 hrs by SRB protein assay
[8] = system: LOX IMVI; test: Growth inhibition of human LOX IMVI cells after 48 hrs by SRB protein assay
[9] = system: CAKI-1; test: Growth inhibition of human CAKI1 cells after 48 hrs by SRB protein assay; conditions: CAKI-1, 48 h
[10] = system: EKVX; test: Growth inhibition of human EKVX cells after 48 hrs by SRB protein assay
[11] = system: CCRF-CEM; test: Growth inhibition of human CCRF-CEM cells after 48 hrs by SRB protein assay
[12] = system: MCF7; test: Growth inhibition of human MCF7 cells after 48 hrs by SRB protein assay; conditions: MCF7, 48 h
[13] = system: Hs-578T; test: Growth inhibition of human HS578T cells after 48 hrs by SRB protein assay
[14] = system: RXF 393; test: Growth inhibition of human RXF393 cells after 48 hrs by SRB protein assay; conditions: RXF 393, 48 h
[15] = system: SK-OV-3; test: Growth inhibition of human SK-OV-3 cells after 48 hrs by SRB protein assay; conditions: SK-OV-3, 48 h
[16] = system: A549; test: Growth inhibition of human A549/ATCC cells after 48 hrs by SRB protein assay; conditions: A549, 48 h
[17] = system: BT-549; test: Growth inhibition of human BT549 cells after 48 hrs by SRB protein assay; conditions: BT-549, 48 h
[18] = system: HOP-62; test: Growth inhibition of human HOP62 cells after 48 hrs by SRB protein assay; conditions: HOP-62, 48 h
[19] = Growth inhibition of human MDA-MB-231/ATCC cells after 48 hrs by SRB protein assay; conditions: MDA-MB-231, 48 h
[20] = system: SK-MEL-5; test: Growth inhibition of human SK-MEL-5 cells after 48 hrs by SRB protein assay; conditions: SK-MEL-5, 48 h
[21] = system: KM12; test: Growth inhibition of human KM12 cells after 48 hrs by SRB protein assay; conditions: KM12, 48 h
[22] = system: OVCAR-8; test: Growth inhibition of human OVCAR8 cells after 48 hrs by SRB protein assay; conditions: OVCAR-8, 48 h
[23] = system: RPMI-8226; test: Growth inhibition of human RPMI8226 cells after 48 hrs by SRB protein assay; conditions: RPMI-8226, 48 h
[24] = system: NCI-H226; test: Growth inhibition of human NCI-H226 cells after 48 hrs by SRB protein assay; conditions: NCI-H226, 48 h
[25] = system: HCT-15; test: Growth inhibition of human HCT15 cells after 48 hrs by SRB protein assay; conditions: HCT-15, 48 h
[26] = system: SF-268; test: Growth inhibition of human SF268 cells after 48 hrs by SRB protein assay; conditions: SF-268, 48 h
[27] = system: OVCAR-3; test: Growth inhibition of human OVCAR-3 cells after 48 hrs by SRB protein assay; conditions: OVCAR-3, 48 h
[28] = system: SF-268; test: Anticancer activity against human SF268 cells assessed as growth of cells at 100 uM relative to untreated cells
[29] = system: NCI-H522; test: Growth inhibition of human NCI-H522 cells after 48 hrs by SRB protein assay; conditions: NCI-H522, 48 h
[30] = system: SF-295; test: Growth inhibition of human SF295 cells after 48 hrs by SRB protein assay; conditions: SF-295, 48 h
[31] = system: UACC-62; test: Growth inhibition of human UACC62 cells after 48 hrs by SRB protein assay; conditions: UACC-62, 48 h
[32] = system: K562; test: Growth inhibition of human K562 cells after 48 hrs by SRB protein assay; conditions: K562, 48 h
[33] = system: SK-MEL-28; test: Growth inhibition of human SK-MEL-28 cells after 48 hrs by SRB protein assay; conditions: SK-MEL-28, 48 h
[34] = system: 786-0; test: Growth inhibition of human 786-0 cells after 48 hrs by SRB protein assay; conditions: 786-0, 48 h
[35] = system: SW-620; test: Growth inhibition of human SW620 cells after 48 hrs by SRB protein assay; conditions: SW-620, 48 h
[36] = system: HCC 2998; test: Growth inhibition of human HCC2998 cells after 48 hrs by SRB protein assay; conditions: HCC 2998, 48 h
[37] = system: UO-31; test: Growth inhibition of human UO31 cells after 48 hrs by SRB protein assay; conditions: UO-31, 48 h
[38] = system: SK-MEL-2; test: Growth inhibition of human SK-MEL-2 cells after 48 hrs by SRB protein assay; conditions: SK-MEL-2, 48 h
[39] = system: SN12C; test: Growth inhibition of human SN12C cells after 48 hrs by SRB protein assay
[40] = system: NCI/ADR-RES; test: Growth inhibition of human NCI/ADR-RES cells after 48 hrs by SRB protein assay

GI50 [1]: 18.2 µM
GI50 [4]: 37.2 µM
GI50 [6]: 23.4 µM
GI50 [7]: 21.4 µM
GI50 [11]: 20.4 µM
GI50 [12]: 25.1 µM
GI50 [15]: > 100 µM
GI50 [16]: 61.7 µM
GI50 [17]: > 100 µM
GI50 [20]: 17.4 µM
GI50 [22]: 22.4 µM
GI50 [23]: 25.1 µM
GI50 [24]: 22.9 µM
GI50 [25]: 24.5 µM
GI50 [27]: 18.6 µM
GI50 [29]: 19.5 µM
GI50 [32]: 31.6 µM
GI50 [33]: 26.9 µM
GI50 [34]: 16.6 µM
GI50 [35]: 37.2 µM
GI50 [36]: > 100 µM
GI50 [38]: > 100 µM
Compound: COc1ccc(NC(=O)CC2Sc3ncnn3C2=O)cc1 (stereo not drawn)
TGI ([1]; read-out: Log TGI (converted)): 32.4 µM
Activity [2]: 0%
GI50 [3]: 67.6 µM
TGI ([3]; read-out: Log TGI (converted)): > 100 µM
TGI ([4]; read-out: Log TGI (converted)): > 100 µM
GI50 [5]: 18.2 µM
TGI ([5]; read-out: Log TGI (converted)): 33.9 µM
TGI ([6]; read-out: Log TGI (converted)): 56.2 µM
TGI ([7]; read-out: Log TGI (converted)): 47.9 µM
GI50 [8]: 21.9 µM
TGI ([8]; read-out: Log TGI (converted)): 42.7 µM
GI50 [9]: 18.6 µM
TGI ([9]; read-out: Log TGI (converted)): 34.7 µM
GI50 [10]: 35.5 µM
TGI ([10]; read-out: Log TGI (converted)): > 100 µM
TGI ([11]; read-out: Log TGI (converted)): 41.7 µM
TGI ([12]; read-out: Log TGI (converted)): 64.6 µM
GI50 [13]: 25.7 µM
TGI ([13]; read-out: Log TGI (converted)): 44.7 µM
GI50 [14]: 15.5 µM
TGI ([14]; read-out: Log TGI (converted)): 41.7 µM
TGI ([15]; read-out: Log TGI (converted)): > 100 µM
TGI ([16]; read-out: Log TGI (converted)): > 100 µM
TGI ([17]; read-out: Log TGI (converted)): > 100 µM
GI50 [18]: > 100 µM
TGI ([18]; read-out: Log TGI (converted)): > 100 µM
GI50 [19]: 21.4 µM
TGI ([19]; read-out: Log TGI (converted)): 38.9 µM
TGI ([20]; read-out: Log TGI (converted)): 35.5 µM
GI50 [21]: > 100 µM
TGI ([21]; read-out: Log TGI (converted)): > 100 µM
TGI ([22]; read-out: Log TGI (converted)): 46.8 µM
TGI ([23]; read-out: Log TGI (converted)): 64.6 µM
TGI ([24]; read-out: Log TGI (converted)): 42.7 µM
TGI ([25]; read-out: Log TGI (converted)): 52.5 µM
GI50 [26]: > 100 µM
TGI ([26]; read-out: Log TGI (converted)): > 100 µM
TGI ([27]; read-out: Log TGI (converted)): 38 µM
Activity [28]: 107%
TGI ([29]; read-out: Log TGI (converted)): 43.7 µM
GI50 [30]: > 100 µM
TGI ([30]; read-out: Log TGI (converted)): > 100 µM
GI50 [31]: > 100 µM
TGI ([31]; read-out: Log TGI (converted)): > 100 µM
TGI ([32]; read-out: Log TGI (converted)): > 100 µM
TGI ([33]; read-out: Log TGI (converted)): > 57.5 µM
TGI ([34]; read-out: Log TGI (converted)): 30.9 µM
TGI ([35]; read-out: Log TGI (converted)): > 100 µM
TGI ([36]; read-out: Log TGI (converted)): > 100 µM
GI50 [37]: 23.4 µM
TGI ([37]; read-out: Log TGI (converted)): 53.7 µM
TGI ([38]; read-out: Log TGI (converted)): > 100 µM
GI50 [39]: 25.1 µM
TGI ([39]; read-out: Log TGI (converted)): 56.2 µM
GI50 [40]: 31.6 µM
TGI ([40]; read-out: Log TGI (converted)): > 100 µM
